Here are results for two compounds from patent US20250352521A1, “FIXED DOSAGE ANTIBIOTIC COMPOSITIONS” (Entasis Therapeutics Limited, priority 2021, published 2025).

Where only a bound is given, the exact number is not on record here.

For data set [1], the system named is class A, C, and D β-lactamases. As to conditions: cited from earlier work.
Data set [2] relates to A. baumannii complex (ABC) isolates. As to conditions: cited from earlier work.
For the next data set, the system named is Enterobacteriaceae. The following applies: in vitro; cited from earlier work.
A short description of data set [3]: Bulk and tapped density analyses according to USP, with calculated compressibility index and Hausner ratio. It is filed as physicochemical. How it is done:
Bulk and tapped density analyses of DUR sodium salt were performed according to USP and the compressibility index (CI) and Hausner ratio was calculated. Typically, a material is considered to have poor flowability if the Hausner ratio is greater than 1.25 and/or if the CI is greater than 25. See e.g., Leroy A. Sherrington, Amal Sherrington, in Analytical Profiles of Drug Substances and Excipients, 1998. […] These experimental values are consistent with the observed powder adhesion.
It has now been found, however, that co-lyophilizing durlobactam sodium salt and sulbactam sodium salt improved flow properties compared to lyophilized durlobactam sodium alone. Initial experiments involved dissolving a 1:1 w/w mixture of durlobactam sodium salt and sulbactam sodium salt in water-for-injection and optimizing the bulk lyophilization conditions (per scale).

Data set [4] is described as follows: Dry powder filling / machinability trials: powder adhesion to filling equipment. As to conditions: machine filling of glass vials. It is filed as physicochemical. The source says:
Initial attempts to formulate a fixed dosage comprised dry powder filling both DUR sodium salt and SUL sodium salt in glass vials. […] The drawback leads to unreliable and inconsistent product dosing. […] See e.g., the Exemplification section below.
Attempts to develop a commercially feasible fixed-dose combination of durlobactam and sulbactam by dry powder filling both DUR sodium salt and SUL sodium salt (as a 1:1 w/w mixture of each salt form) in glass vials were not successful because of the highly hygroscopic, poor flow properties of DUR sodium salt. […] See e.g., FIG. 1, showing the DUR sodium salt powder residue from the centralized suction and on the feeding chute observed during machinability trials. See also FIG. 2 which depicts the appearance of the DUR sodium salt powder filled product.

The mark [5] stands for this setting: calculated from bulk and tapped density.

Consider `CC1=C[C@@H]2CN(C(=O)N2OS(=O)(=O)O)[C@@H]1C(N)=O` [Durlobactam], for which the “Inhibition of β-lactamases” value in data set [1] is recorded as “potent inhibition”. Further, the “Restoration of in vitro activity of sulbactam” value in data set [2] (in combination with sulbactam) is reported as “restores the in vitro activity of sulbactam”. Moreover, the Intrinsic activity result in data set [2] (in vitro, durlobactam alone) is on record as “no significant intrinsic activity”. Besides, the Intrinsic antibacterial activity result in the data set with Enterobacteriaceae is “intrinsic antibacterial activity against some Enterobacteriaceae”.

On to `CC1=C[C@@H]2CN(C(=O)N2OS(=O)(=O)[O-])[C@@H]1C(N)=O.[Na+]` [DUR-Na salt, Durlobactam], for which, in data set [3], the Bulk density is 0.38 g/mL; the “Flowability as indicated by Hausner ratio and CI” value is “extremely poor flowing material”; the Tapped density is 0.61 g/mL. Moreover, in data set [3] (setting [5]), the “CI (compressibility index)” value is 38% and the Hausner ratio is 1.6. Besides, the Hausner ratio in data set [3] (calculated from bulk and tapped density, listed as DUR sodium salt) is reported as over 1.6. Further, the “Powder adhesion to the parts of the filling equipment” value in data set [4] is “significant powder adhesion”.
